Source: US8653049B2, “Normuramyl glycopeptide compounds” (priority 2008, dated 2014)
“Also recorded” adds a separate entry of the source.

Experiments:
[1] = test system: NK sensitive K562 cell line; assay: NK cell cytotoxicity of human PBMC, 51Cr-release against K562; format: cell-based; details: range 0.1 μM-100 μM; FIG. 28
Description: Ex vivo effects of test compounds on NK cells were evaluated on human peripheral blood mononuclear cells (PBMC). The NK cell cytotoxicity of healthy donors in the presence or absence of test compounds was measured in standard 4 hrs ^51Cr-release assay against NK sensitive K562 cell line in effector (PBMC) to target (K562) ratio 16:1. Test compounds were added at a concentration of 10^−7 mol/ml.
Testing of compounds 23, 24, 32, 33, 40 and 41 for their capacity to induce cell-mediated cytotoxicity of human eripheral blood mononuclear cells (PBMCs) is shown in FIGS. 27 and 28. All donors were healthy. […] The cytotoxicity of untreated controls (30.5%) was renormalized to 100%.

[2] = rabbits, liposomal preparations s.c. 100 nmol/kg, 3 rabbits per group; passes if below 1.1° C.
Description: The test was conducted in an authorised laboratory, ITEST plus s.r.o., Bilé Vchýnice 10, 533 13 Vápno u Prelouce, Czech Republic, according to guide-lines CL 2005.
Rabbits (New Zeeland albino, 4-6 kg, 3 animals per group) were used for testing.
Liposomal preparations of muramyl glycopeptide derivatives were administered s.c. (100 nmol/kg). Empty liposomes were used as negative control and the liposomal as well as the free form of muramyl dipeptide (MDP) (25 μg/kg, corresponding to 50.7 nmol/kg) served as positive control. Temperature was measured in 1, 2, 3, 4,6 and 24 hour intervals.
Empty liposomes were used as negative control; and liposomal as well as free muramyl dipeptide (MDP) (50.7 nmol/kg) served as positive control. B30-norAbu-MDP (MT01, structure on page 5) served as additional control. Temperature was measured in 1, 2, 3, 4, 6 and 24 h intervals. The preparation passed the test if the Sum of ΔTmax remained below 1.1° C. (3 rabbits per group)

Salmonella enteritidis = assay: Stimulation of innate immunity against Salmonella Enteritidis; details: liposomal, 20 nmol per dose p.o. 72 and 24 h before infection (LD50); 5 mice
[3] = test system: GM-CFC progenitors in bone marrow; assay: GM-CFC recovery, test compounds after sub-lethal irradiation; format: in vivo, ICR/CD-1 mice; details: s.c. 100 nmol 24 h after 6 Gy, FIG. 36
Description: (§1) Institite of Cancer Research (ICR/CD-1) mice (female, age of 3 months, 3-4 per group) were stimulated by s.c. administration of test compounds (volume of 200 μl, 100 nmol per dose) 24 h before sublethal γ-irradiation (6 Gy, ^60Co γray source Chisostat, Chirana Ltd., Czech Republic, at a dose of 0.285 Gy/min.). Mice were sacrified at day 13 and recovery of GM-CFC in femour was assayed by counting of colonies (CFC) formed after cultivation in medium. Non-irradiated mice were used as control for normal GM-CFC count in femour. PBS and empty liposomes were used as controls for spontaneous recovery. Liposomal MDP was used as reference standard.
(§2) The following parameters of hemopoiesis were evaluated: • a) Blood leukocyte counts and bone marrow cellularity. Blood leukocytes (samples of blood drawn from an incision of the tail vein) and nucleated cell elements of the femoral bone marrow (femoral diaphyses flushed with saline) were estimated by means of Coulter Counter (Model ZN, Coulter Electronics). • b) Colony-forming cells in spleen. Endogenous spleen colony-forming units (E-CFUs) were measured on day 9 post the whole-body irradiation with 6.5 Gy (5 mice per group) according to Till and McCulloch. • c) GM-CFC progenitors in bone marrow. Femoral bone marrow cells were obtained from mice by flushing the femour with sterile IMDM medium. Harvested cells were calculated and diluted to 1.5×10^5 cells/ml and plated in triplicate in a semisolid environment created by plasma clot (Iscovess modification of Dulbecco's medium, 20% of fetal calf serum, 10% of colony-stimulating factor, 10% of citrate plasma, and CaCl2 1.5 mg/ml). The cultures were incubated for 7 days at 37° C. in 5% CO2. Colonies of at least 50 cells were scored at 40× magnification.
The method is exactly as described above except that the test compounds (volume of 200 μl, 100 nmol per dose) were administered 24 h after sublethal γ-irradiation (6 Gy).

[4] = test system: myelin basic protein induced EAE; assay: Experimental allergic encephalomyelitis (EAE), Th1 adjuvant activity; format: in vivo, guinea pigs
[5] = test system: tetanus toxoid (TaT) specific IgG antibodies; parameters: species or system BALB/c mice; details: mouse, in vivo, sc
[6] = test system: Friend leukemia virus (FLV); assay: Friend leukemia virus infection: survival, TER-119+ cells, spleen; details: for survival, early phase (day 43): saline control 82%; for clonal expansion of TER-119+ erythroleukaemia cells in spleen / spleen size (weight): day 16; for clonal expansion of TER-119+ erythroleukaemia cells in spleen: FIG. 24; for spleen size (weight): FIG. 25
[7] = test system: GM-CFC progenitors in bone marrow; assay: GM-CFC recovery, test compounds before sub-lethal irradiation; format: in vivo, ICR/CD-1 mice; details: s.c. 100 nmol 24 h before 6 Gy, day 13; FIGS. 33-35
Description: as §1, §2
Statistical significance between individual experimental groups of mice in hemopoietic parameters was calculated by one-way analysis of variance. The Newman-Keuls test for comparison of all pairs of columns and the Dunnett test for comparison of all columns with the control column were used in the analysis.

[8] = test system: r-hsp90 (Candida albicans hsp90) specific IgG antibodies; assay: Proteoliposome vaccine against C. albicans hsp90: antibody (humoral) response, ELISA; format: in vivo, BALB/c mice; details: Experiment 12.2; liposomal compound (5%) + Ni-HSP90, boost day 14; FIG. 13
Description: Proteoliposomes were prepared by coupling recombinant hsp90 antigen (r-hsp90, 6×HISTag) via a metal chelating lipid to liposomes containing muramyl glycopeptide derivatives as adjuvant component. BALB/c […] mice 4 to 5 weeks old (female 20±2 g, 5 animal per group) were immunized by the intradermal route either with 20 μg of free or liposomal r-hsp90 (volume of 60 μl) either with or without L18-norAbu-MDP and boosted 21 days later by the same composition of experimental vaccine. FCA was used as positive control r-hsp90. Liposomal vaccine composition 20 μg of rHSP90 antigen, 5% metallochelating lipid, 5% particular MT analogue, 90% phospolipids.
Blood samples were collected from the tail vein into heparinised capillary PCV tubes. After centrifugation, the upper part of the tube, containing […] blood serum, was cut off, thrown into […] diluting solution and thoroughly shaken. Thus, a basic dilution of 1:33 was obtained. The pre-diluted sera were kept at −20° C. Blood samples were collected before the first immunization, 2 weeks thereafter and subsequently at weekly intervals up to the 4th week after the second immunisation. Specific IgG antibodies in blood serum samples were determined by the standard indirect ELISA procedure. The data obtained were processed statistically using the non-parametric Mann-Whitney U-test.
Proteoliposomes with muramyl glycopeptide derivatives were prepared as described above, but the boost was carried out already after 14 days. The liposomal vaccine composition was as for Experiment Set 1: 20 μg of rHSP90 antigen, 5% metallochelating lipid, 5% particular MT analogue, 90% phospolipids.
Controls: Aluminum hydroxide (AlOH) and Freund complete adjuvans (FCA) were used as positive controls. PBS with empty liposomes was used as negative control (control). Humoral response was tested at day 14 after vaccination (post priming) and at day 20 after vaccination (post booster). Antibody titres were wer assayed by ELISA.

[9] = test system: NK-sensitive YAC1 target cells; assay: NK cell-mediated cytotoxicity of spleen mononuclear cells, 51Cr-release against YAC1; details: FLV-inoculated mice, day 16, 18 h incubation with YAC1; FIG. 26

| SMILES | dose response of NK cell activity [1] | +ΔTmax (Sum of ΔTmax) [2] [°C] | Day 6 Intest.: clear/infected/dead (Salmonella enteritidis) | Day 6 Liver: clear/infected/dead (Salmonella enteritidis) | Day 6 Lungs: clear/infected/dead (Salmonella enteritidis) | Day 6 Spleen: clear/infected/dead (Salmonella enteritidis) | Day 12 Intest.: clear/infected/dead (Salmonella enteritidis) | Day 12 Liver: clear/infected/dead (Salmonella enteritidis) | Day 12 Lungs: clear/infected/dead (Salmonella enteritidis) | Day 12 Spleen: clear/infected/dead (Salmonella enteritidis) | GM-CFC progenitor cells in bone marrow [3] | clonal expansion of TER-119+ erythroleukaemia cells in spleen [6] | spleen size (weight) [6] | other results |
| --- | --- | --- | --- | --- | --- | --- | --- | --- | --- | --- | --- | --- | --- | --- |
| CCCCCCCCCCCCCCCCCC(=O)N[C@H]1[C@H](O[C@H]2[C@H](OCC(=O)N[C@@H](CC)C(=O)N[C@H](CCC(=O)O)C(N)=O)[C@@H](NC(C)=O)C(O)O[C@@H]2CO)O[C@H](CO)[C@@H](O)[C@@H]1O (stereo partly drawn) [Compound 23, N-[2-O-(2-deoxy-2-stearoylamino-β-D-glucopyranosyl-(1→4)-2-acetamido-2,3-dideoxy-α-D-glucopyranosid-3-yl)-glycoloyl]-L-α-aminobutanoyl-D-isoglutamine] | positive dose response | 0.7 | 2/3/0 | 0/5/0 | 1/4/0 | 0/5/0 | 1/2/2 | 1/2/2 | 1/2/2 | 1/2/2 | strongest effect | positive effect on clonal expansion | increased spleen size | GM-CFC progenitor cells in bone marrow ([3]; listed as compound 23): strongest performers; Positive animals (%) (incidence of EAE) ([4]; 50 μg myelin basic protein + 1 mg test compound in FIA, footpads, up to day 21, FCA positive control): 86%; Th1 stimulation (EAE) ([4]; guinea pigs sensitized with bovine MBP in IFA + compound, FIG. 31): superior to MDP and GMDP as Th1 adjuvants; anti-TaT antibody response [5]: did not show a significant antibody response; anti-TaT antibody response (adjuvant activity) [5]: Strong adjuvant activity; survival, late phase (days 55 and 59), long-term ([6]; 10 μmol i.p., non-liposomal, control 0%, FIG. 23): clearly worse at day 55; survival, early phase (day 43) ([6]; 10 μmol i.p., non-liposomal, FIG. 23): survival not worse than control at day 43; survival, early phase (day 43) ([6]; 10 μmol i.p., non-liposomal, FIG. 23, listed as compound 23): slightly better than saline control; % of survivors on day 45 ([6]; 52 infected mice, non-liposomal compound i.p. day −10 and −3, infected non-treated 23): 45% |
| CCCCCCCCCCCCCCCCCC(=O)NCCCC[C@H](NC(=O)CC[C@@H](NC(=O)[C@H](CC)NC(=O)CO[C@H]1[C@H](O[C@@H]2O[C@H](CO)[C@@H](O)[C@H](O)[C@H]2NC(C)=O)[C@@H](CO)OC(O)[C@@H]1NC(C)=O)C(N)=O)C(=O)O (stereo partly drawn) [Compound 40, N-[2-O-(2-Acetamido-2-deoxy-βD-glucopyranosyl-(1→4)-2-acetamido-2,3-dideoxy-D-glucopyranose-3-yl)-glycoloyl]-L-α-aminobutanoyl-D-isoglutaminyl-L-lysine(stearoyl)] | negative dose response | 0.6 | 4/1/0 | 4/1/0 | 4/1/0 | 5/0/0 | 0/2/3 | 1/1/3 | 1/1/3 | 1/1/3 | strongest performers; also recorded: strongest effect; also recorded: one of the best effects | dose-dependent, positive effect | spleen size slightly lower than the control | GM-CFC progenitor cells in bone marrow [7]: acceptable performance; antibody response to r-hsp90 proteoliposomes [8]: strong and comparable to AlOH; NK cell activity (cell-mediated cytotoxicity of SMCs) [9]: stimulate NK cell functional activity |
